Results published in US20140328826A1, “PRODUCT AND METHOD FOR TREATING KELOID SCARS, HYPERTROPHIC SCARS AND BURN SCARS WITH CONTRACTURE” (COLE Research & Design, Inc., priority 2013, published 2014).

System: keloid scar
Test: Intralesional injection of the pharmaceutical composition into keloid scars of patients
Assay type: in vivo, human
Conditions: injected into the keloid scar; general statement, 'often'
Experimental: A pharmaceutical composition was prepared by mixing 1.0 mg of high molecular weight hyaluronic acid (0.1 cc of HYALGAN®, sodium hyaluronate) with 7.5 units of hyaluronidase (HYLENEX® recombinant human hyaluronidase), which was injected into the keloid scar. […] Erythema and tenderness of the keloid scar was also resolved.
A pharmaceutical composition was prepared as in Example 1, and injected into the keloid scar.
The patient also reported a sharp, piercing pain from the keloid scar. A pharmaceutical composition was prepared as in Example 1, and injected into the keloid scar.
A fourth patient had two keloid scars, one on each earlobe. A pharmaceutical composition was prepared as in Example 1, and injected into each of the keloid scars. […] Some itching was reported by the patient.
All four patients responded to the treatment. Overall, there was significant reduction in keloid scar size, with an average of approximately a 22% reduction in length, a 37% reduction in width, and a 45% reduction in height. Even more striking was great reduction in density and hardness of the keloid scar tissue, leaving a soft pliable skin sack after treatment.
Only a few mild adverse reactions were reported. Two patients reported very mild itching from the keloid scars. Some stinging from the injection was also reported. No significant pain or swelling was reported.

## low molecular weight hyaluronic acid
  shrinkage of keloid scar volume: ≥ 50%
